Assay results reported in PubChem BioAssay (NCI).
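1) Cells in 96-well plates. 2) Compound, 48 h, 5 concentrations. 3) Linear interpolation between surrounding doses. 4) Unreached endpoint = highest concentration. At the TGI there is no net growth.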

Legend:
Experiment in all cases: NCI-60 cell line screen, 48 h
786-0 renal = test system: 786-0 renal
A498 renal = test system: A498 renal
DU-145 prostate = test system: DU-145 prostate
HCT-116 colon = test system: HCT-116 colon
HL-60(TB) leukemia = test system: HL-60(TB) leukemia
HT29 colon = test system: HT29 colon
KM12 colon = test system: KM12 colon
M14 melanoma = test system: M14 melanoma
MDA-MB-435 = test system: MDA-MB-435
OVCAR-8 ovarian = test system: OVCAR-8 ovarian
PC-3 prostate = test system: PC-3 prostate
SF-295 CNS = test system: SF-295 CNS
SF-539 CNS = test system: SF-539 CNS
SN12C renal = test system: SN12C renal
SNB-19 CNS = test system: SNB-19 CNS
SR leukemia = test system: SR leukemia
TK-10 renal = test system: TK-10 renal
UACC-257 melanoma = test system: UACC-257 melanoma
UO-31 renal = test system: UO-31 renal

COc1ccc(/C=C2\N=C(NN)N=C2Cl)cc1
TGI (786-0 renal): > 100 µM
TGI (A498 renal): > 100 µM
TGI (DU-145 prostate): > 100 µM
TGI (HCT-116 colon): > 100 µM
TGI (HL-60(TB) leukemia): > 100 µM
TGI (HT29 colon): > 100 µM
TGI (KM12 colon): > 100 µM
TGI (M14 melanoma): > 100 µM
TGI (MDA-MB-435): > 100 µM
TGI (OVCAR-8 ovarian): > 100 µM
TGI (PC-3 prostate): > 100 µM
TGI (SF-295 CNS): > 100 µM
TGI (SF-539 CNS): > 100 µM
TGI (SN12C renal): > 100 µM
TGI (SNB-19 CNS): > 100 µM
TGI (SR leukemia): > 100 µM
TGI (TK-10 renal): > 100 µM
TGI (UACC-257 melanoma): > 100 µM
TGI (UO-31 renal): > 100 µM

COC(=O)[C@@H]1C[C@H]([Se]c2ccccc2)CN1C(=O)OCc1ccccc1
TGI (786-0 renal): > 100 µM
TGI (A498 renal): > 100 µM
TGI (DU-145 prostate): > 100 µM
TGI (HCT-116 colon): > 100 µM
TGI (HL-60(TB) leukemia): 66 µM
TGI (HT29 colon): 70.4 µM
TGI (KM12 colon): > 100 µM
TGI (M14 melanoma): > 100 µM
TGI (MDA-MB-435): 65 µM
TGI (OVCAR-8 ovarian): > 100 µM
TGI (PC-3 prostate): > 100 µM
TGI (SF-295 CNS): > 100 µM
TGI (SF-539 CNS): > 100 µM
TGI (SN12C renal): > 100 µM
TGI (SNB-19 CNS): > 100 µM
TGI (SR leukemia): > 100 µM
TGI (TK-10 renal): > 100 µM
TGI (UACC-257 melanoma): > 100 µM
TGI (UO-31 renal): 95.3 µM
